Tested on: JeKo-1 human mantle cell lymphoma (MCL) subcutaneous xenograft
Assay: JeKo-1 human MCL subcutaneous xenograft model, Bcl-2 inhibitor with BTK inhibitor
Type: in vivo, NCG mice
Conditions: 20 mpk p.o. BID
Procedure: JeKo-1 cells were maintained as suspension cell cultures at 37° C. in a 5% CO2 atmosphere. Five to six-week-old female NCG mice were purchased from Gempharmatech of Information Technology Center. All animals were maintained under specific pathogen free (SPF) “full barrier” condition with free access to food and water. […] Mice were fed with complete granulated feed with Co60 radiosterilization (Beijing Ke Ao Xie Li Feed Co., Ltd.). All experiments were carried out in accordance with BeiGene's IACUC.
Re-suspended cells were placed on ice prior to inoculation. […] Each animal was injected subcutaneously with 1×10^7 cells in 200 μL of cell suspension in the right front flank via a 26-gauge needle. After implantation, primary tumor volume was measured in two dimensions using a caliper.
Transplanted animals were randomized into 8 groups with 10 mice per group on day 0 according to transplantation sequence and body weight. […] Treatments were administered by oral gavage (p.o.) in a volume of 10 mL/kg body weight. Body weight was assessed immediately before dosing and volume dosed was adjusted accordingly.
Individual body weight was recorded twice weekly, with mice being monitored daily for clinical signs of toxicity for the duration of the study. Mice were euthanized using carbon dioxide when their tumor volume reached 2,000 mm^3, the tumor was ulcerated, or body weight loss exceeded 20%.
Tumor volume (TV) was calculated using the formula: TV=0.5×(a×b^2) where a and b are the long and short diameters of the tumor, respectively. […] (treated t=treated tumor volume at time t, vehicle t=vehicle tumor volume at time t)

C=CC(=O)N1CCC([C@@H]2CCNc3c(C(N)=O)c(-c4ccc(Oc5ccccc5)cc4)nn32)CC1 [Compound B, (S)-7-(1-acryloylpiperidin-4-yl)-2-(4-phenoxyphenyl)-4,5,6,7-tetra-hydropyrazolo[1,5-a]pyrimidine-3-carboxamide, reference compound]
Mean TV (D 21) (mm^3 ± SEM): 799.8 ± 73.2 mm^3
TGI (%) (day 21, 20 mg/kg): 56%
